In US10021881B2, “Vaporized administration of pesticides” (priority 2016, dated 2018):

Tests used:
Botrytis cinerea [1] = assay: In vitro assay of vaporized pyrimethanil to inhibit pathogenic fungal growth (agar plates); format: cell-based; settings: B. cinerea, 3 days at 23° C.
Description: (§1) An in vitro assay was used to evaluate the ability of pyrimethanil to vaporize in order to control the infection of various pathogenic microorganisms when applied to the plants and plant parts. For in vitro experiments, a 12-well microtiter plate, 6-well, or a 10-cm Petri plates each containing 7.5 ml, 16.5 or 22 ml volumes, respectively, of half strength Potato Dextrose Agar (PDA) were prepared. Each well or plate was inoculated with 1 microliter (μL) of 1×10^5 spores/ml of the appropriate pathogenic spore suspension (e.g., Botrytis cinerea, Penicillium expansum, Glomerella cingulata, Penicillium digitatum, Aspergillus flavus, Colletotrichum acutatum, Fusarium sambucinum, and Geotrichum candidum) by spotting the pathogen on the center of the agar well or plate. The inoculated microtiter or Petri plate was then sealed with a breathable film. One set of triplicate plates for each pathogen was placed inside the bottom of an air-tight 36-L desiccator chamber and closed with secure clamps.
(§2) Evaporation of the acetone left behind solid crystals of pyrimethanil.
(§3) The tube of the device was attached to a port on the side of the chamber that allowed airflow of the pyrimethanil vapor into the chamber. The chamber was at room temperature during administration of the pyrimethanil. The chambers were then incubated for three (3) days at 23° C. After incubation, post-treatment growth inhibition of each in vitro pathogen was measured on the inoculated plates and compared to control samples.

Colletotrichum acutatum = assay: as above; format: cell-based; settings: C. acutatum, 3 days at 23° C.
Description: as §1, §2, §3

Geotrichum candidum = assay: as above; format: cell-based; settings: G. candidum, 3 days at 23° C.
Description: as §1, §2, §3

Glomerella cingulata = assay: as above; format: cell-based; settings: G. cingulata, 3 days at 23° C.
Description: as §1, §2, §3

Penicillium digitatum = assay: as above; format: cell-based; settings: P. digitatum, 3 days at 23° C.
Description: as §1, §2, §3

Penicillium expansum [2] = assay: as above; format: cell-based; settings: P. expansum, 3 days at 23° C.
Description: as §1, §2, §3

Penicillium expansum [3] = assay: In vivo assay of vaporized pyrimethanil to inhibit Penicillium expansum in apples
Description: An in vivo assay was used to evaluate the ability of vaporized pyrimethanil to control pathogenic infection of apples by Penicillium expansum. […] Each wound was then inoculated with 30 μL of 1×10^6 spores/mL suspension of P. expansum.
Fruits were evaluated in order to observe disease incidence (i.e., browning) and fungal sporulation diameter (both measured in millimeters, mm).

Botrytis cinerea [4] = assay: In vivo assay of vaporized pyrimethanil to inhibit Botrytis cinerea in grapes; settings: for Gray Mold Severity (0-4): scale 0 no disease to 4 exceptionally high
Source text: An in vivo assay was used to evaluate the ability of vaporized pyrimethanil to control pathogenic infection of Table grapes by Botrytis cinerea.

[5] = 0.04 mg/L, Day 0 (after 3 days at 21° C.)
[6] = 0.04 mg/L, Day 1 (after 3 days at 21° C.)
[7] = 0.04 mg/L, Day 2 (after 3 days at 21° C.)
[8] = 0.04 mg/L, Day 3 (after 3 days at 21° C.)
[9] = 0.2 mg/L, Day 0 (after 3 days at 21° C.)
[10] = 0.2 mg/L, Day 1 (after 3 days at 21° C.)
[11] = 0.2 mg/L, Day 2 (after 3 days at 21° C.)
[12] = 0.2 mg/L, Day 3 (after 3 days at 21° C.)
[13] = 1 mg/L, Day 0 (after 3 days at 21° C.)
[14] = 1 mg/L, Day 1 (after 3 days at 21° C.)
[15] = 1 mg/L, Day 2 (after 3 days at 21° C.)
[16] = 1 mg/L, Day 3 (after 3 days at 21° C.)
[17] = 0.01 mg/L, Day 0 (after 3 days at 21° C.)
[18] = 0.01 mg/L, Day 1 (after 3 days at 21° C.)
[19] = 0.01 mg/L, Day 2 (after 3 days at 21° C.)
[20] = 0.01 mg/L, Day 3 (after 3 days at 21° C.)
[21] = 0.03 mg/L, Day 0 (after 3 days at 21° C.)

Question: With `Cc1cc(C)nc(Nc2ccccc2)n1` [pyrimethanil, 4,6-Dimethyl-N-phenylpyrimidin-2-amine] as the compound, how does the “Mycelial Growth Inhibition (%)” value (Botrytis cinerea [1]; 0.1 mg/L headspace) read?
Answer: 91.9%

Question: And the “Mycelial Growth Inhibition (%)” value (Botrytis cinerea [1]; 0.3 mg/L headspace)?
Answer: 92.1%

Question: What about the “Mycelial Growth Inhibition (%)” value (Botrytis cinerea [1]; 1 mg/L headspace) of the same compound?
Answer: 95.2%

Question: And the “Mycelial Growth Inhibition (%)” value (Colletotrichum acutatum; 0.1 mg/L headspace)?
Answer: 100.0%

Question: And the “Mycelial Growth Inhibition (%)” value (Colletotrichum acutatum; 0.3 mg/L headspace)?
Answer: 90.0%

Question: What about the “Mycelial Growth Inhibition (%)” value (Colletotrichum acutatum; 1 mg/L headspace) of the same compound?
Answer: 89.7%

Question: And the “Mycelial Growth Inhibition (%)” value (Geotrichum candidum; 0.1 mg/L headspace)?
Answer: 57.8%

Question: And the “Mycelial Growth Inhibition (%)” value (Geotrichum candidum; 0.3 mg/L headspace)?
Answer: 73.1%

Question: What about the “Mycelial Growth Inhibition (%)” value (Geotrichum candidum; 1 mg/L headspace) of the same compound?
Answer: 75.2%

Question: What about the “Mycelial Growth Inhibition (%)” value (Glomerella cingulata; 0.1 mg/L headspace) of the same compound?
Answer: 31.5%

Question: What about the “Mycelial Growth Inhibition (%)” value (Glomerella cingulata; 0.3 mg/L headspace) of the same compound?
Answer: 62.1%

Question: What about the “Mycelial Growth Inhibition (%)” value (Glomerella cingulata; 1 mg/L headspace) of the same compound?
Answer: 77.3%

Question: What about the “Mycelial Growth Inhibition (%)” value (Penicillium digitatum; 0.1 mg/L headspace) of the same compound?
Answer: 100.0%

Question: What about the “Mycelial Growth Inhibition (%)” value (Penicillium digitatum; 0.3 mg/L headspace) of the same compound?
Answer: 100.0%

Question: What about the “Mycelial Growth Inhibition (%)” value (Penicillium digitatum; 1 mg/L headspace) of the same compound?
Answer: 100.0%

Question: And the “Mycelial Growth Inhibition (%)” value (Penicillium expansum [2]; 0.1 mg/L headspace)?
Answer: 92.4%

Question: And the “Mycelial Growth Inhibition (%)” value (Penicillium expansum [2]; 0.3 mg/L headspace)?
Answer: 100.0%

Question: And the “Mycelial Growth Inhibition (%)” value (Penicillium expansum [2]; 1 mg/L headspace)?
Answer: 100.0%

Question: What about the “Browning (mm)” value (Penicillium expansum [3]; [5]) of the same compound?
Answer: 10.6 mm

Question: What about the “Fungal Sporulation (mm)” value (Penicillium expansum [3]; [5]) of the same compound?
Answer: 2.6 mm

Question: And the “Browning (mm)” value (Penicillium expansum [3]; [6])?
Answer: 16.2 mm

Question: And the “Fungal Sporulation (mm)” value (Penicillium expansum [3]; [6])?
Answer: 2.1 mm

Question: And the “Browning (mm)” value (Penicillium expansum [3]; [7])?
Answer: 23.1 mm

Question: What about the “Fungal Sporulation (mm)” value (Penicillium expansum [3]; [7]) of the same compound?
Answer: 2.8 mm

Question: What about the “Browning (mm)” value (Penicillium expansum [3]; [8]) of the same compound?
Answer: 28.8 mm

Question: What about the “Fungal Sporulation (mm)” value (Penicillium expansum [3]; [8]) of the same compound?
Answer: 3.1 mm

Question: And the “Browning (mm)” value (Penicillium expansum [3]; [9])?
Answer: 5.3 mm

Question: What about the “Fungal Sporulation (mm)” value (Penicillium expansum [3]; [9]) of the same compound?
Answer: 0.3 mm

Question: What about the “Browning (mm)” value (Penicillium expansum [3]; [10]) of the same compound?
Answer: 8.1 mm

Question: And the “Fungal Sporulation (mm)” value (Penicillium expansum [3]; [10])?
Answer: 0.8 mm

Question: What about the “Browning (mm)” value (Penicillium expansum [3]; [11]) of the same compound?
Answer: 12.7 mm

Question: And the “Fungal Sporulation (mm)” value (Penicillium expansum [3]; [11])?
Answer: 1.4 mm

Question: What about the “Browning (mm)” value (Penicillium expansum [3]; [12]) of the same compound?
Answer: 16.2 mm

Question: And the “Fungal Sporulation (mm)” value (Penicillium expansum [3]; [12])?
Answer: 2.6 mm

Question: What about the “Browning (mm)” value (Penicillium expansum [3]; [13]) of the same compound?
Answer: 3.4 mm

Question: What about the “Fungal Sporulation (mm)” value (Penicillium expansum [3]; [13]) of the same compound?
Answer: 0.1 mm

Question: And the “Browning (mm)” value (Penicillium expansum [3]; [14])?
Answer: 5.6 mm

Question: What about the “Fungal Sporulation (mm)” value (Penicillium expansum [3]; [14]) of the same compound?
Answer: 0.7 mm

Question: And the “Browning (mm)” value (Penicillium expansum [3]; [15])?
Answer: 8.8 mm

Question: What about the “Fungal Sporulation (mm)” value (Penicillium expansum [3]; [15]) of the same compound?
Answer: 0.8 mm

Question: What about the “Browning (mm)” value (Penicillium expansum [3]; [16]) of the same compound?
Answer: 11.4 mm

Question: What about the “Fungal Sporulation (mm)” value (Penicillium expansum [3]; [16]) of the same compound?
Answer: 1.6 mm

Question: What about the “Gray Mold Incidence (%)” value (Botrytis cinerea [4]; [17]) of the same compound?
Answer: 100.0%

Question: And the “Gray Mold Severity (0-4)” value (Botrytis cinerea [4]; [17])?
Answer: 1.6

Question: What about the “Gray Mold Incidence (%)” value (Botrytis cinerea [4]; [18]) of the same compound?
Answer: 100.0%

Question: What about the “Gray Mold Severity (0-4)” value (Botrytis cinerea [4]; [18]) of the same compound?
Answer: 2.0

Question: What about the “Gray Mold Incidence (%)” value (Botrytis cinerea [4]; [19]) of the same compound?
Answer: 100.0%

Question: What about the “Gray Mold Severity (0-4)” value (Botrytis cinerea [4]; [19]) of the same compound?
Answer: 2.0

Question: What about the “Gray Mold Incidence (%)” value (Botrytis cinerea [4]; [20]) of the same compound?
Answer: 100.0%

Question: And the “Gray Mold Severity (0-4)” value (Botrytis cinerea [4]; [20])?
Answer: 3.6

Question: What about the “Gray Mold Incidence (%)” value (Botrytis cinerea [4]; [21]) of the same compound?
Answer: 100.0%

Question: And the “Gray Mold Severity (0-4)” value (Botrytis cinerea [4]; [21])?
Answer: 1.4

Question: What about the “Gray Mold Incidence (%)” value (Botrytis cinerea [4]; 0.03 mg/L, Day 1 (after 3 days at 21° C.)) of the same compound?
Answer: 100.0%
